Columns and labels:
[1] = system: mice subjected to hypobaric hypoxia; test: Effects on survival time of mice subjected to hypobaric hypoxia; format: in vivo, mouse (ddY strain; male); conditions: 30 mg/kg oral, 2 h before; 150 mmHg; mean ± S.E.; *P < 0.05, **P < 0.001 vs control
Procedure: Mice (ddY strain; male; body weight 20-22 g) were used as test animals. Each group consisted of 10 or more mice. A test compound (30 mg/kg) was orally administered to each mouse. Two hours after the administration, each animal was put into a desiccator (capacity: 9 l), and the inside pressure of the desiccator was reduced to 150 mmHg over a period of 52-55 seconds. The time from the start of the pressure reduction to the cessation of respiratory motion was measured. Survival time of the compound-administered group and that of the control group were compared by t-test.

[2] = system: mice subjected to normobaric hypoxia; test: Effects on survival time of mice subjected to normobaric hypoxia; format: in vivo, mouse (ddY strain; male); conditions: 50 mg/kg oral, 2 h before; 96% nitrogen/4% oxygen; protected = alive 10 or more minutes
Procedure: Mice (ddY strain; male; body weight 20-22 g) were used as test animals. Each group consisted of 10 or more mice. A test compound (50 mg/kg) was orally administered to each mouse.
Then each animal was put into a glass cylinder (capacity: 700 ml) and a mixture of nitrogen (96%) and oxygen (4%) was passed through the cylinder at a velocity of 5 1 /min and expelled through a hole in the side wall. The time from the start of the gas mixture supply to the cessation of respiratory motion was measured, and animals which remained alive for 10 or more minutes were evaluated as "protected". Among 50 untreated animals, no animal remained alive. In use, the test compound was suspended in an aqueous solution of carboxymethylcellulose sodium (0.3%).

[3] = system: decapitated heads of mice; test: Effect on time of gasping persistence by decapitated heads of mice; format: in vivo, mouse (ddY strain; male); conditions: 30 mg/kg oral, 2 h before decapitation; mean ± S.E.; **P < 0.001 vs control
Procedure: Mice (ddY strain; male; body weight 20-22 g) were used as test animals. Each group consisted of 10 or more mice. A test compound (30 mg/kg) was orally administered to each mouse. Two hours after the administration, each animal was decapitated, and the time from the decapitation to the cessation of gasping was measured. Time of gasping persistence of the treated group and that of the control group were compared by t-test.

[4] = Test for acute toxicity (LD50, oral, 7 days); conditions: mouse, in vivo, mice, deaths within 7 days, 5 mice per group
Procedure: Mice (ddY strain; male; body weight 21-23 g) were used as test animals. Each group consisted of 5 mice. The test compound was orally administered to each mouse. During the test period of 7 days after the administration, the number of deaths in each group was counted to calculate the LD50. All animals were bred in a breeding room, maintained at a temperature of 23°±2° C. and a humidity of 55-60%. These animals were given a solid feed "F-2" (commercial product of Funabashi Nojo) and city water ad libitum.

[5] = system: mice subjected to anaemic hypoxia; test: Effects on survival time of mice subjected to anaemic hypoxia (NaNO2); format: in vivo, mouse (ddY strain; male); conditions: 30 mg/kg oral, 2 h before; NaNO2 225 mg/kg s.c.; mean ± S.E.; *P < 0.05, **P < 0.001 vs control
Procedure: (Hypoxia induced by NaNO2 administration to convert haemoglobin to methemoglobin)
Mice (ddY strain; male; body weight 20-22 g) were used as test animals. Each group consisted of 10 or more mice. A test compound (30 mg/kg) was orally administered to each mouse. Two hours after the administration, NaNO2 (225 mg/kg) was subcutaneously administered to each mouse. The time from the NaNO2 administration to death was measured. Survival time of the compound-administered group and that of the control group were compared by t-test.

[6] = system: cerebral ischaemia or cerebral hypoxia; conditions: cited from literature; cited from earlier work
[7] = Acute toxicity (general statements, comparison with nizofenone); conditions: in vivo, po; per os; species and method not stated at this place
[8] = cited from literature / background; cited from earlier work

SMILES	A/B (number of animals surviving / number of animals tested) [2]	LD50 at 168 h [4]	also measured
CC1CCCCN1C(=O)C=Cc1ccc(C(F)(F)F)cc1 (stereo not drawn) [Compound 1, 2-methyl-1-(4-trifluoromethylcinnamoyl) piperidine]	10/10	> 1010 mg/kg	Survival Time [1]: 582.8 ± 12.1 s; Persistence Time (gasping) [3]: 39.1 ± 1.4 s; Survival Time [5]: 64.9 ± 5.5 min
CC1COCCN1C(=O)C=Cc1ccc(C(F)(F)F)cc1 (stereo not drawn) [Compound 2, 3-methyl-4-(4-trifluoromethylcinnamoyl) morpholine]	8/10	675 to 1010 mg/kg	
CC1CCCCN1C(=O)C=Cc1ccc(Cl)cc1 (stereo not drawn) [Compound 3, 2-Methyl-1-(4-chlorocinnamoyl) piperidine]	9/10	> 1010 mg/kg	Survival Time [1]: 172.4 ± 11.3 s; Persistence Time (gasping) [3]: 30.2 ± 1.1 s; Survival Time [5]: 47.7 ± 5.5 min
CC1CCCCN1C(=O)C=Cc1ccc(F)cc1 (stereo not drawn) [Compound 4, 2-Methyl-1-(4-fluorocinnamoyl) piperidine]	7/20	> 1010 mg/kg	Survival Time [1]: 126.3 ± 6.9 s; Persistence Time (gasping) [3]: 23.5 ± 0.8 s; Survival Time [5]: 58.4 ± 5.5 min
CC1CCCC(C)N1C(=O)C=Cc1ccc(C(F)(F)F)cc1 (stereo not drawn) [Compound 5, 2,6-Dimethyl-1-(4-trifluoromethylcinnamoyl) piperidine]	15/20	> 1010 mg/kg	
O=C(C=Cc1ccc(F)cc1)N1CCOCC1 [Compound 6, 4-(4-Fluorocinnamoyl) morpholine]	2/10	> 1010 mg/kg	
O=C(C=Cc1ccc(C(F)(F)F)cc1)N1CCOCC1 [Compound 7, 4-(4-Trifluoromethylcinnamoyl) morpholine]	4/10	300 to 450 mg/kg	
CC1CCN(C(=O)C=Cc2ccc(C(F)(F)F)cc2)CC1 [Compound 8, 4-Methyl-1-(4-trifluoromethylcinnamoyl) piperidine]	5/20	> 1010 mg/kg	
O=C(C=Cc1ccc(C(F)(F)F)cc1)N1CCCCC1CO (stereo not drawn) [Compound 9, 2-Hydroxymethyl-1-(4-trifluoromethylcinnamoyl) piperidine]	2/10		
O=C(C=Cc1ccc(C(F)(F)F)cc1)N1CCC(O)CC1 [Compound 10, 4-Hydroxy-1-(4-trifluoromethylcinnamoyl) piperidine]	2/10		
O=C(C=Cc1ccc(C(F)(F)F)cc1)N1CCSCC1 [Compound 11, 4-(4-Trifluoromethylcinnamoyl) thiomorpholine]	7/10		
O=C(C=Cc1ccc(C(F)(F)F)cc1)N1CC[S+]([O-])CC1 [Compound 12, 4-(4-trifluoromethylcinnamoyl) thiomorpholine-1-oxide]	8/10		
O=C(C=Cc1ccc(C(F)(F)F)cc1)N1CCS(=O)(=O)CC1 [Compound 13, 4-(4-trifluoromethylcinnamoyl) thiomorpholine-1,1-dioxide]	6/10		
O=C(C=Cc1ccc(Cl)cc1)N1CCCCC1 [Compound 14, 1(4-chlorocinnamoyl) piperidine]	4/10	> 1010 mg/kg	
O=C(C=Cc1ccc(Cl)c(Cl)c1)N1CCOCC1 [Compound 15, 4(3,4-dichlorocinnamoyl) morpholine]	5/10	450 to 675 mg/kg	
O=C(C=Cc1ccc(Cl)cc1)N1CCOCC1 [Compound 16, 4(4-chlorocinnamoyl) morpholine]	5/10	675 to 1010 mg/kg	
CCC1(c2ccccc2)C(=O)NC(=O)N(C)C1=O (stereo not drawn) [mephobarbital]			cerebral protective effect (literature) [6]: have a cerebral protective activity
CCN(CC)Cc1nccn1-c1ccc([N+](=O)[O-])cc1C(=O)c1ccccc1Cl.O=C(O)/C=C/C(=O)O [nizofenone, 1-[2-(2-chlorobenzoyl)-4-nitrophenyl]-2-(diethylaminomethyl)imidazole fumarate]			cerebral protective effect (literature) [6]: has a cerebral protective effect against cerebral ischaemia or cerebral hypoxia, similar to that of barbiturates; LD50 [7]: 450 to 675 mg/kg; anesthetic or respiration-suppressing action, side effects (literature) [8]: does not exhibit an anesthetic or respiration-suppressing action
CCCC(C)C1(CC)C(=O)NC(=O)NC1=O (stereo not drawn) [pentobarbital]			cerebral protective effect (literature) [6]: have a cerebral protective activity
CCCC(C)C1(CC)C(=O)NC(=S)NC1=O (stereo not drawn) [thiopental]			cerebral protective effect (literature) [6]: have a cerebral protective activity

From patent publication US4962107A, “Agent for cerebral protection” (Kyowa Hakko Kogyo Kabushiki Kaisha, priority 1985, dated 1990)
